Measurements as given in the SangsterLogP compilation.

Tests used:
[1] = method code SF-AS, from DOI: 10.1016/s0022-3565(25)32601-7, PMID: 7194909
[2] = method code SF-RC, from DOI: 10.1016/j.nucmedbio.2005.06.001, PMID: 16253804; settings: pH 7.4
[3] = method code SF-RC, from DOI: 10.1016/j.bmc.2015.06.036, PMID: 26145817; settings: pH 7.4
[4] = method code SF-HPLC, from DOI: 10.1016/j.bmc.2011.11.059, PMID: 22189276; settings: pH 7.4
[5] = method code RP-HPLC, from DOI: 10.1021/jm970292n, PMID: 9371243
[6] = method code SF-AS, from DOI: 10.1039/p29900001191; settings: pH 12.0
[7] = method code SF-RC, from DOI: 10.1016/j.bmcl.2015.05.048, PMID: 26073008; settings: pH 7.4
[8] = method code SF-HPLC, from DOI: 10.1016/j.jpba.2011.06.023, PMID: 21782368; settings: pH 7.4
[9] = method code SF-RC, from DOI: 10.1021/jm301492y, PMID: 23214511; settings: pH 7.4
[10] = method code SF-HPLC, from DOI: 10.1584/jpestics.11.469
[11] = not given; remark: listed apart in the source
[12] = pH 7.4
[13] = method code SF, from DOI: 10.1021/jm00167a034, PMID: 2329572; settings: pH 7.4
[14] = method code SF-AS, from DOI: 10.1016/s0014-827x(98)00024-x, PMID: 9679281
[15] = method code SF-AS, from DOI: 10.1135/cccc19831077; settings: pH 3.5
[16] = method code SF-AS, from DOI: 10.1002/ps.2780140302; settings: pH 5.0
[17] = not given; remark: listed apart in the source
[18] = method code SF-RC, from DOI: 10.1002/syn.21606, PMID: 22927303; settings: pH 7.4
[19] = not given; remark: listed apart in the source
[20] = method code SF-RC, from DOI: 10.1021/acs.jmedchem.6b00849, PMID: 27690428; settings: pH 7.4
[21] = not given; remark: listed apart in the source
[22] = method code SF-RC, from DOI: 10.1021/jm201482p, PMID: 22339166; settings: pH 6.8
[23] = method code SF-AS, from Zsuzsa, H.; Nora, K. (1979). Study on the partition coefficient of acetanilides. Nehezvegyp. Kut. Intez. Kozl., 8, 139-146.
[24] = not given; remark: listed apart in the source
[25] = method code SF-AS, from DOI: 10.1080/1071576031000148736, PMID: 14567446
[26] = method code SF, from DOI: 10.1016/j.ijpharm.2011.07.043, PMID: 21839822; settings: pH 7.4
[27] = not given; remark: listed apart in the source
[28] = method code SF-HPLC, from DOI: 10.1039/p29890001935
[29] = method code SF-AS, from DOI: 10.1016/0223-5234(94)90120-1; settings: pH 7.4
[30] = method code SF-RC, from DOI: 10.1016/j.ejmech.2014.07.070, PMID: 25063945; settings: pH 7.4

Molecule `OC1(c2ccc(Cl)cc2)c2ccccc2C2=NCCCN21` (configuration not stated) has a logP [1] of 1.41.

For `CNc1ccc(C=Cc2ccc(OCCOCCOCCF)cc2)cc1`, the logD [2] was 2.41.

In the case of `Cc1cc(N(C)CCOCCF)n2nc(C)c(-c3ccc(Cl)cc3Cl)c2n1`, the logD [3] is reported as 2.3.

With `CCCCCCOC(=O)NCCCC(C)Nc1cc(OC)cc2cccnc12` (configuration not stated) the logD [4] was 3.02.

`COc1cccc2cc3cccc(OC)c3c(OC)c12` showed a logP [5] of 4.1.

Molecule `O=C1CC[C@@]2(O)[C@H]3Cc4ccc(O)c5c4[C@@]2(CCN3CC2CC2)[C@H]1O5` has a logP of 1.12.

`c1ccc(Cc2cc(-c3ccccc3)nnc2NCCN2CCOCC2)cc1` showed a logD [6] of 3.65.

With `COc1ccc(/C=C/c2cc(=O)c3cc(I)ccc3o2)cc1` the logD [7] was 2.15.

With `COC(=O)CC(CNC(=O)OC(C)(C)C)c1ccc(Cl)cc1` (configuration not stated) the logD [8] was 1.5.

Work on `CCOC(=O)CC(CNC(=O)OC(C)(C)C)c1ccc(Cl)cc1` (configuration not stated) yielded a logD [8] of 2.

`O=C(NC1CCCCC1)c1ccc(O)c(-c2ccccc2)c1` showed a logD [9] of 2.85.

Molecule `CCOC(=O)C(C)Oc1ccc(Oc2cnc3cc(C)ccc3n2)cc1` (configuration not stated) has a logP [10] of 4.11.

`C[C@]12CC[C@H](O)CC1=CC[C@@H]1[C@@H]2CC[C@]2(C)C(=O)CC[C@@H]12` gave a logP [11] of 3.23.

With `Cc1ccc(C)n1NC(=O)Cc1ccc(N2CCOCC2)nn1` the logD [12] was 1.64.

Molecule `CCCCCCNC(=O)c1ccc(O)c(-c2ccccc2)c1` has a logD [9] of 3.67.

With `Cc1cn(C2CC(N=[N+]=[N-])C(COC(=O)C(N)Cc3ccc(O)cc3)O2)c(=O)[nH]c1=O` (configuration not stated) the logD [13] was -0.03.

Work on `Cc1[nH]c2ccccc2c1Cc1n[nH]c(=S)n1-c1cccc2ccccc12` yielded a logP [14] of 3.02.

In the case of `O=C(O)Cc1ccc(OCCc2ccccc2)c(Cl)c1`, the logD [15] is reported as 3.53.

Work on `N#Cc1cc(-c2ccccc2)nnc1NCCN1CCOCC1` yielded a logD [6] of 1.89.

`OC(c1ccccc1)(c1cncnc1)c1ccc(Cl)cc1Cl` (configuration not stated) showed a logD [16] of 2.56.

`CO[C@@]12CCC(=O)[C@@H]3Oc4c(O)ccc5c4[C@@]31CCN(C)[C@@H]2C5` showed a logP [17] of 0.6.

With `CCc1cc2cc(C(=O)C3CCC(OC)CC3)ccc2nc1C` (configuration not stated) the logD [18] was 3.38.

`CC(n1ccnc1)C(O)(c1ccc(F)cc1)c1ccc(F)cc1` (configuration not stated) showed a logP [19] of 3.13.

In the case of `N#Cc1ccc(N(Cc2ccc(I)cc2)n2ccnc2)cc1`, the logD [20] is reported as 1.59.

With `CN(SN(C)C(=O)Oc1cccc2ccccc12)C(=O)Oc1ccc2c(c1)OCO2` the logP [21] was 2.83.

`COc1cc(CC(=O)O)ccc1OCc1ccccc1` gave a logD [15] of 2.59.

In the case of `CO[C@@]12CCC(=O)[C@]3(C)Oc4c(O)ccc5c4[C@@]31CCN(C)[C@@H]2C5`, the logP [17] is reported as 1.12.

`Cc1cccc2c1O[P@](=O)(OC[C@H]1O[C@@H](n3cc(I)c(=O)[nH]c3=O)C[C@@H]1O)OC2` gave a logD [22] of 0.85.

In the case of `CC(=O)N(CC(=O)Nc1ccccc1)c1ccccc1`, the logP [23] is reported as 2.01.

`O=c1[nH]c(=O)n([C@H]2C[C@H](O)[C@@H](CO[P@]3(=O)OCc4ccccc4O3)O2)cc1I` showed a logD [22] of 0.65.

For `COC(=O)C1=C(C)NC(C)=C(C(=O)OCC(C)C)C1c1cccc([N+](=O)[O-])c1` (configuration not stated), the logP [24] was 3.23.

`Cc1cn([C@H]2C[C@H](N=[N+]=[N-])[C@@H](COC(=O)c3cccnc3)O2)c(=O)[nH]c1=O` showed a logD [13] of 0.2.

With `CNc1ccc(C=Cc2ccc(OCCOCCF)cc2)cc1` the logD [2] was 2.52.

Work on `O=C(O)c1ccccc1C1c2cc(Cl)c(O)cc2Oc2cc(O)c(Cl)cc21` yielded a logP [25] of 2.62.

Work on `CCCCCCCCCCCCNC(=O)c1ccccc1O` yielded a logD [26] of 5.37.

Work on `O=c1cc(/C=C/c2ccc(O)cc2)oc2ccc(I)cc12` yielded a logD [7] of 1.87.

In the case of `OC(c1ccc(F)cc1)(c1cncnc1)c1ccccc1Cl` (configuration not stated), the logD [16] is reported as 2.2.

For `O=C(CN(C(=O)C(Cl)Cl)c1ccccc1)Nc1ccccc1`, the logP [23] was 2.96.

`Cc1ccc(OP(=O)(Oc2ccccc2)Oc2ccccc2)cc1` showed a logP [27] of 4.4.

For `FC(F)(F)c1ccccc1C1OCC2ON=C(c3ccccc3)C2CO1` (configuration not stated), the logP [28] was 4.31.

With `COc1cc2nc(N(C)CCCNC(=O)C3CCCO3)nc(N)c2cc1OC` (configuration not stated) the logP [24] was 1.93.

Molecule `S=C1SCN(CCc2ccccc2)CN1Cc1ccccc1` has a logD [29] of 4.7.

`CCCCCCCCCCNC(=O)c1ccccc1O` gave a logD [26] of 4.53.

`Cc1cccc(OC(=O)N(C)SN(C)C(=O)Oc2ccc3c(c2)OCO3)c1` gave a logP [21] of 2.66.

Molecule `S=C1SCN(CCc2ccccc2)CN1CCc1ccccc1` has a logD [29] of 5.3.

In the case of `CC(=O)Oc1ccc(C(O)(Cn2ccnc2)c2ccc(-c3ccncc3)cc2)cc1` (configuration not stated), the logP [19] is reported as 2.61.

`Cc1cc(N(C)CCCCF)n2nc(C)c(-c3ccc(Cl)cc3Cl)c2n1` showed a logD [3] of 2.75.

Molecule `CCOC(=O)COC(=O)NCCCC(C)Nc1cc(OC)cc2cccn12` (configuration not stated) has a logD [4] of 3.09.

With `CN(C)c1ccc(/C=C/C(=O)/C=C/c2ccc(F)cc2)cc1` the logD [30] was 3.89.

In the case of `C=CCN1CC[C@]23c4c5ccc(O)c4O[C@H]2C(=O)CC[C@@]3(O)[C@H]1C5`, the logP is reported as 1.53.

Molecule `CC(=O)Oc1cc2c(cc1Cl)C(c1ccccc1C(=O)O)c1cc(Cl)c(OC(C)=O)cc1O2` has a logP [25] of 3.51.

`N#Cc1ccc(N(Cc2ccc(I)cc2)c2cncnc2)cc1` gave a logD [20] of 2.16.

Work on `CCc1cc2cc(C(=O)C3CCC(OC)CC3)ccc2nc1F` (configuration not stated) yielded a logD [18] of 3.54.

`Cc1ccc(C)n1Nc1ccc(N2C[C@@H](C)O[C@@H](C)C2)nn1` gave a logD [12] of 2.59.

Work on `c1ccc(Nc2nnc(Cn3ccc4ccccc43)s2)cc1` yielded a logP [14] of 3.73.

With `Cc1ccccc1C1OCC2ON=C(c3ccccc3)C2CO1` (configuration not stated) the logP [28] was 2.72.

Work on `O=P(Oc1ccccc1)(Oc1ccccc1)Oc1ccccc1` yielded a logP [27] of 3.9.

Work on `OC1(c2ccc(Cl)cc2)c2ccccc2C2=NCCCCN21` (configuration not stated) yielded a logP [1] of 1.15.

Work on `C[C@]12CC[C@@H](O)C[C@@H]1CC[C@@H]1[C@@H]2CC[C@]2(C)[C@@H](O)CC[C@@H]12` yielded a logP [11] of 4.16.

Molecule `CCOC(=O)C(C)Oc1ccc(Oc2cnc3cc(F)ccc3n2)cc1` (configuration not stated) has a logP [10] of 3.65.

`CNc1ccc(/C=C/C(=O)/C=C/c2ccc(F)cc2)cc1` showed a logD [30] of 2.69.

`O=C1c2c(O)cccc2C(c2ccccc2)c2cccc(O)c21` gave a logP [5] of 3.81.
